The subject of test [1] is HIV-1 (IIIB strain clone 2). The experiment in a line: Synergy of anti-HIV activity, viral reverse transcriptase activity in supernatant of infected MT-4 cells (checker board). It counts as cell-based.
Protocol: Human T cell line Molt-4 cells persistently infected with HIV-1 (IIIB strain clone 2) were cultured in RPMI-1640 medium supplemented with 10% fetal calf serum, and the supernatant was filtered and stored at -80° C. after the virus titer was determined.
The combination of these two drugs was conducted by the checker board method using 96-well microplates. […] After 4 hours, 50 μl of the culture supernatant of the above HIV-1 IIIB strain clone 2 was added, at the same time 50 μl of CDIMI in two-fold dilution was also added, followed by incubation in 5% CO2 incubator at 37° C. for 5 days.
Virus titers in the culture supernatant were calculated by taking viral reverse transcriptase activity as an index determined by the following method:
To 100 μl of a reaction mixture containing 50 mM Tris-HCl, pH 8.3, 150 mM KCl, 10 mM MgCl2, 0.1% Nonidet P-40, 10 mM dithiothreitol, 5 μg/l poly(A), 5 μg/ml (dT)12-18, and 1 μCi [^3 H]dTTP was added 10 μl of the culture supernatant, and incubated at 37° C. for 3 hours. The reaction mixture was chilled on ice and transferred by a cell harvester to a DEAE-Filtermat. The filter was washed with 5% Na2 HPO4.12H2 O and H2 O, and the radioactivity incorporated in DNA was measured by an LKB Beta Plate scintillation counter to determine viral reverse transcriptase activity.
On the assumption that the inhibition of the two anti-HIV compounds was additive, virus growth inhibition rate was calculated on all combinations of concentrations according to the formula (I)
wherein Z means an additive inhibition rate, X is an inhibition rate of CDIMI and Y is an inhibition rate of the other anti-HIV compound.
When the measured value is greater than the additive inhibition rate, namely, the value is more than 0 in Table 3, it is judged as having synergy. Synergy volume is designated as total sum of values more than 0 in Table 3.
Addition to cells of saquinavir and foscarnet was done at the same time as that of CDIMI when the virus was infected. […]
Another test concerns D67N + K70R. The experiment in a line: microbe, parasite or virus in culture. It counts as cell-based, HIV. On the procedure: (§1) The mutant clones' cDNAs were transfected to SW480 cells. The produced mutant viruses were infected to MT-4 cells in the same method as described in Experiment 1 in the presence of the drug. After 4 days, viral growth was assayed using reverse transcriptase activity as a marker.

The next test relates to T215Y + L234I. The test is described as follows: microbe, parasite or virus in culture. In kind it is cell-based, HIV. On the procedure:
as §1

The subject of a further test is L234I. The experiment in a line: microbe, parasite or virus in culture. In kind it is cell-based, HIV. Conditions: Human immunodeficiency virus 1, MT4, 96 h. As to the method: as §1
The next test has as its system F227C. The test is described as follows: microbe, parasite or virus in culture. In kind it is cell-based, HIV. Conditions: Human immunodeficiency virus 1, MT4, 96 h. On the procedure:
as §1

The subject of the next test is V106A + F227L. The experiment in a line: microbe, parasite or virus in culture. Conditions: Human immunodeficiency virus 1, MT4, 96 h. In kind it is cell-based, HIV. On the procedure:
as §1

A further test concerns Y181C. The test is described as follows: microbe, parasite or virus in culture. Conditions: Human immunodeficiency virus 1, MT4, 96 h. In kind it is cell-based, HIV. On the procedure:
as §1

A further test concerns NL432 (Wild strain). The experiment in a line: microbe, parasite or virus in culture. It counts as cell-based, HIV. Conditions: Human immunodeficiency virus 1, MT4, 96 h. On the procedure: as §1
The test system of the next test is T215Y. The test is described as follows: microbe, parasite or virus in culture. In kind it is cell-based, HIV. On the procedure: as §1
In test [2] the test system is CDIMI resistant or AZT resistant mutant clones of HIV. The test is described as follows: Cross resistance of CDIMI resistant and AZT resistant mutant clones. It counts as cell-based. On the procedure: as §1
In test [3] the test system is HIV-1 IIIB strain clone 3. The test is described as follows: Suppression of the emergence of drug resistant variants in M 8166 cells. It counts as cell-based. Conditions: for Week of emergence of resistant mutants: CDIMI 1 ng/ml, ddC 50 ng/ml at start, doubled on viral growth; for Ratio of resistance compared to parent strain: isolated resistant virus vs parent strain. As to the method: an T cell line Molt-4 cells persistently infected with HIV-1 (IIIB strain clone 3) were cultured in RPMI-1640 medium supplemented with 10% fetal calf serum, the supernatant was filtered and stored at […], after the virus titer was determined.
One ml of the above medium containing 10^6 cells of M 8166 was added to each well of 12-well plates, and 100 μl of the above HIV-1 IIIB strain clone 3 was added, and incubated for 2 hours for virus infection. Cells were washed with the above medium, and 4 ml of the medium containing CDIMI or other anti-HIV compounds alone or their combination was added to each well and incubated in 5% CO2 incubator at 37° C. CDIMI was added at 1 ng/ml and ddC was added at 50 ng/ml respectively and the same concentrations of them were added for the combination. Cells were subcultured twice a week, and when viral growth was observed, the drug concentration of the anti-HIV compound was doubled. In the case that no viral growth was observed, the drug concentration was kept the same as that of the last culture.
Virus titer was determined using viral reverse transcriptase activity as a marker by the following method.
To 100 μl of the reaction mixture containing 50 mM Tris-HCl, pH 8.3, 150 mM KCl, 10 mM MgCl2, 0.1% Nonidet P-40, 10 mM dithiothreitol, 5 μg/ml poly(A), 5 μg/ml (dT) 12-18, and 1 μCi [^3 H] dTTP was added 10 μl of the culture supernatant, and incubated at 37° C. for 3 hours. The reaction mixture was chilled on ice and collected by a cell harvester on a DEAE-Filtermat. The filter was washed with 5% Na2 HP04.12H2 O and H2 O, and the radioactivity incorporated in DNA was measured by an LKB Beta Plate scintillation counter to determine viral reverse transcriptase activity.
When virus growth was observed, viruses were isolated and the sensitivity to each active ingredient was assayed by the usual method.

Setting [4] is: Human immunodeficiency virus 1, MT4, 96 h.

In brackets after ≈: the same amount, converted by molar mass.

By inhibition is commonly meant the change of the read-out against control, counted positive when it falls. In the case of `Cc1cn([C@H]2C[C@H](N=[N+]=[N-])[C@@H](CO)O2)c(=O)[nH]c1=O` [AZT, azidodeoxythymidine, reference compound], the inhibition at 0.0008 µg/mL in [1] (Human immunodeficiency virus 1, IIIB, MT4, read-out: inhibition rate Y of the other anti-HIV compound) was 43.4%.
What is called EC50 is the midpoint of the concentration-response curve. As a reminder, the EC90 is the point of the concentration-response curve where the effect stands at 90%. As for `CC(C)c1nc(COC(N)=O)n(Cc2ccncc2)c1Sc1cc(Cl)cc(Cl)c1` [CDIMI, 2-carbamoyloxymethyl-5-(3,5-dichlorophenylthio)-4-iropropyl-1-(pyridin-4-yl) methyl-1H-imidazole], the sensitivity of strain result was “equivalent to that of the wild strain” with D67N + K70R (D67N plus K70R); “sensitive to CDIMI and AZT at the same level as the wild strain's” in the test with T215Y + L234I (T215Y plus L234I); “equivalent to that of the wild strain” in the test on T215Y (T215Y). In addition, the EC50 was determined as 0.31 ng/mL (≈ 0.687 nM) in the test with D67N + K70R (setting [4]); 0.69 ng/mL (≈ 1.53 nM) in the test with T215Y + L234I (setting [4]); 6.8 ng/mL (≈ 15.1 nM) in the test on L234I; 2.4 ng/mL (≈ 5.32 nM) in the test with F227C; 117 ng/mL (≈ 259 nM) in the test with V106A + F227L; 4.2 ng/mL (≈ 9.3 nM) in the test with Y181C. The EC50 was found to be 0.31 ng/mL (≈ 0.687 nM) with NL432 (Wild strain) and 0.17 ng/mL (≈ 0.377 nM) in the test with T215Y (setting [4]). Also, the EC90 in the test with D67N + K70R (setting [4]) worked out at 1 ng/mL (≈ 2.22 nM); with T215Y + L234I (setting [4]), 2.7 ng/mL (≈ 5.98 nM); with L234I it was 14 ng/mL (≈ 31 nM); in the test on F227C, 9.8 ng/mL (≈ 21.7 nM); with V106A + F227L, 310 ng/mL (≈ 687 nM); in the test with Y181C it was 18 ng/mL (≈ 39.9 nM). Further, the EC90 in the test with NL432 (Wild strain) amounted to 1.1 ng/mL (≈ 2.44 nM); with T215Y (setting [4]), 0.4 ng/mL (≈ 0.886 nM). Further, in test [1] (Human immunodeficiency virus 1, IIIB, MT4, read-out: inhibition rate X of CDIMI), the inhibition at 0.005 µg/mL turned out to be 99.6%. In test [1] (ddI 0 ng/ml (Table 4), lines in order CDIMI 5, 2.5, 1.25, 0.625, 0.313, 0.16, 0.08 ng/ml, 7200 min), the “reverse transcriptase inhibition rate (%)” value was found to be 99.01%. For the same molecule, the cross resistance result in test [2] is “do not show cross resistance”. For the same molecule, the “Week of emergence of resistant mutants” value in test [3] amounted to 4 weeks. For the same molecule, in [3], the “Ratio of resistance compared to parent strain” value turned out to be 10 times.
`Nc1ccn([C@H]2CC[C@@H](CO)O2)c(=O)n1` [ddC, dideoxycytidine, reference compound]: in test [3], the “Week of emergence of resistant mutants” value came to 1 weeks and the “Ratio of resistance compared to parent strain” value was found to be 20 times.

These data come from US6083958A, “Anti-HIV composition containing imidazole derivative” (Shionogi & Co., Ltd., priority 1996, dated 2000).
